Measured values as given in the CheMixHub viscosity set.
Several values for one entry are separate records, joined by “and”; a condition that tells them apart may be missing. Equal values may be shown once. ± gives the uncertainty stated by the source.

Assay: xn = mol fraction of the nth substance listed

[Cl-].[K+] + O
Settings	viscosity
293.15 K, 101 kPa, x1 = 0.005905	0.9971 ± 0.0063 mPa·s and 0.9972 ± 0.0063 mPa·s
293.15 K, 101 kPa, x1 = 0.009253	0.9943 ± 0.0063 mPa·s
293.15 K, 101 kPa, x1 = 0.01811	0.9892 ± 0.0063 mPa·s and 0.989 ± 0.0063 mPa·s
293.15 K, 101 kPa, x1 = 0.02711	0.9882 ± 0.0064 mPa·s and 0.9881 ± 0.0064 mPa·s
293.15 K, 101 kPa, x1 = 0.03656	0.9913 ± 0.0065 mPa·s
293.15 K, 101 kPa, x1 = 0.0468	0.9995 ± 0.0067 mPa·s and 0.9994 ± 0.0067 mPa·s
293.15 K, 101 kPa, x1 = 0.07583	1.047 ± 0.0073 mPa·s
297.65 K, 100 kPa, x1 = 0.02628	0.905 ± 0.025 mPa·s and 0.904 ± 0.025 mPa·s
298.15 K, 100 kPa, x1 = 0.05933	0.932 ± 0.025 mPa·s and 0.933 ± 0.025 mPa·s
298.15 K, 101 kPa, x1 = 0.005905	0.8895 ± 0.0057 mPa·s
298.15 K, 101 kPa, x1 = 0.009253	0.8885 ± 0.0057 mPa·s and 0.8886 ± 0.0057 mPa·s
298.15 K, 101 kPa, x1 = 0.01811	0.8883 ± 0.0058 mPa·s and 0.8882 ± 0.0058 mPa·s
298.15 K, 101 kPa, x1 = 0.02711	0.8911 ± 0.0059 mPa·s and 0.891 ± 0.0059 mPa·s
298.15 K, 101 kPa, x1 = 0.0468	0.908 ± 0.0061 mPa·s and 0.9079 ± 0.0061 mPa·s
298.15 K, 101 kPa, x1 = 0.05806	0.9238 ± 0.0063 mPa·s
298.15 K, 101 kPa, x1 = 0.06612	0.9378 ± 0.0065 mPa·s and 0.9377 ± 0.0065 mPa·s
298.15 K, 101 kPa, x1 = 0.07583	0.9577 ± 0.0067 mPa·s and 0.9576 ± 0.0067 mPa·s
298.15 K, 101.3 kPa, x1 = 0.00072	0.8908 ± 0.0085 mPa·s
298.15 K, 101.3 kPa, x1 = 0.00162	0.8906 ± 0.0085 mPa·s
298.15 K, 101.3 kPa, x1 = 0.002874	0.8911 ± 0.0085 mPa·s
298.15 K, 101.3 kPa, x1 = 0.004484	0.8895 ± 0.0085 mPa·s
298.15 K, 101.3 kPa, x1 = 0.007154	0.8891 ± 0.0085 mPa·s
298.15 K, 101.3 kPa, x1 = 0.01245	0.8885 ± 0.0085 mPa·s
298.15 K, 101.3 kPa, x1 = 0.0177	0.8882 ± 0.0085 mPa·s
299.15 K, 100 kPa, x1 = 0.07333	0.95 ± 0.026 mPa·s and 0.949 ± 0.026 mPa·s
299.65 K, 100 kPa, x1 = 0.04316	0.888 ± 0.024 mPa·s
300.15 K, 100 kPa, x1 = 0.008975	0.86 ± 0.023 mPa·s and 0.858 ± 0.023 mPa·s
303.15 K, 101 kPa, x1 = 0.005905	0.7997 ± 0.0052 mPa·s
303.15 K, 101 kPa, x1 = 0.009253	0.8005 ± 0.0052 mPa·s and 0.8003 ± 0.0052 mPa·s
303.15 K, 101 kPa, x1 = 0.01811	0.8034 ± 0.0053 mPa·s and 0.8032 ± 0.0053 mPa·s
303.15 K, 101 kPa, x1 = 0.03656	0.8174 ± 0.0055 mPa·s
303.15 K, 101 kPa, x1 = 0.0468	0.8296 ± 0.0057 mPa·s and 0.8294 ± 0.0057 mPa·s
303.15 K, 101 kPa, x1 = 0.05806	0.8467 ± 0.0059 mPa·s and 0.8466 ± 0.0059 mPa·s
303.15 K, 101 kPa, x1 = 0.06612	0.8611 ± 0.006 mPa·s and 0.8612 ± 0.006 mPa·s
303.15 K, 101 kPa, x1 = 0.07583	0.8802 ± 0.0062 mPa·s and 0.8799 ± 0.0062 mPa·s
307.15 K, 100 kPa, x1 = 0.05933	0.798 ± 0.022 mPa·s and 0.799 ± 0.022 mPa·s
308.15 K, 100 kPa, x1 = 0.05933	0.793 ± 0.021 mPa·s and 0.794 ± 0.021 mPa·s
308.15 K, 101.3 kPa, x1 = 0.00072	0.7204 ± 0.007 mPa·s
308.15 K, 101.3 kPa, x1 = 0.00162	0.721 ± 0.007 mPa·s
308.15 K, 101.3 kPa, x1 = 0.007154	0.7241 ± 0.007 mPa·s
308.15 K, 101.3 kPa, x1 = 0.01245	0.7273 ± 0.0071 mPa·s
308.15 K, 101.3 kPa, x1 = 0.0177	0.7305 ± 0.0071 mPa·s
308.65 K, 100 kPa, x1 = 0.02628	0.738 ± 0.02 mPa·s and 0.737 ± 0.02 mPa·s
308.65 K, 100 kPa, x1 = 0.04316	0.761 ± 0.021 mPa·s and 0.759 ± 0.021 mPa·s
309.15 K, 100 kPa, x1 = 0.008975	0.717 ± 0.02 mPa·s
309.15 K, 100 kPa, x1 = 0.07333	0.805 ± 0.022 mPa·s
313.15 K, 101 kPa, x1 = 0.005905	0.6585 ± 0.0044 mPa·s
313.15 K, 101 kPa, x1 = 0.009253	0.661 ± 0.0044 mPa·s
313.15 K, 101 kPa, x1 = 0.01811	0.6685 ± 0.0045 mPa·s and 0.6683 ± 0.0045 mPa·s
313.15 K, 101 kPa, x1 = 0.02711	0.6774 ± 0.0046 mPa·s
313.15 K, 101 kPa, x1 = 0.03656	0.6885 ± 0.0048 mPa·s
313.15 K, 101 kPa, x1 = 0.0468	0.7028 ± 0.0049 mPa·s
313.15 K, 101 kPa, x1 = 0.05806	0.7211 ± 0.0051 mPa·s
313.15 K, 101 kPa, x1 = 0.06612	0.7359 ± 0.0053 mPa·s
313.15 K, 101 kPa, x1 = 0.07583	0.7551 ± 0.0055 mPa·s
316.15 K, 100 kPa, x1 = 0.008975	0.629 ± 0.017 mPa·s and 0.63 ± 0.017 mPa·s
317.65 K, 100 kPa, x1 = 0.02628	0.631 ± 0.017 mPa·s
317.65 K, 100 kPa, x1 = 0.05933	0.686 ± 0.019 mPa·s
318.15 K, 100 kPa, x1 = 0.07333	0.705 ± 0.019 mPa·s and 0.706 ± 0.019 mPa·s
318.15 K, 101.3 kPa, x1 = 0.00072	0.5972 ± 0.006 mPa·s
318.15 K, 101.3 kPa, x1 = 0.00162	0.5983 ± 0.006 mPa·s
318.15 K, 101.3 kPa, x1 = 0.002874	0.6 ± 0.006 mPa·s
318.15 K, 101.3 kPa, x1 = 0.004484	0.601 ± 0.006 mPa·s
318.15 K, 101.3 kPa, x1 = 0.007154	0.6037 ± 0.006 mPa·s
319.15 K, 100 kPa, x1 = 0.04316	0.643 ± 0.017 mPa·s and 0.64 ± 0.017 mPa·s
323.15 K, 101 kPa, x1 = 0.005905	0.554 ± 0.0038 mPa·s
323.15 K, 101 kPa, x1 = 0.01811	0.5673 ± 0.004 mPa·s
323.15 K, 101 kPa, x1 = 0.02711	0.5782 ± 0.0041 mPa·s
323.15 K, 101 kPa, x1 = 0.0468	0.6058 ± 0.0043 mPa·s
323.15 K, 101 kPa, x1 = 0.05806	0.6242 ± 0.0045 mPa·s
323.15 K, 101 kPa, x1 = 0.06612	0.6389 ± 0.0047 mPa·s
323.15 K, 101 kPa, x1 = 0.07583	0.6575 ± 0.0048 mPa·s

CC(C)N + O=C1CCCCC1
298.15 K, 101 kPa
Settings	viscosity [mPa·s]
x2 = 0.0627	0.41 ± 0.011
x2 = 0.1309	0.604 ± 0.015
x2 = 0.2051	0.844 ± 0.019
x2 = 0.2865	1.135 ± 0.024
x2 = 0.3759	1.498 ± 0.029
x2 = 0.4746	1.904 ± 0.033
x2 = 0.5842	2.083 ± 0.032
x2 = 0.7067	2.162 ± 0.028
x2 = 0.8442	2.051 ± 0.023

OCC(F)(F)F + O=C1CCCN1
viscosity [mPa·s], 101 kPa
Settings	x1 = 0.3	x1 = 0.4	x1 = 0.5	x1 = 0.6	x1 = 0.7	x1 = 0.8	x1 = 0.9
293.15 K	9.082 ± 0.91	6.392 ± 0.64	4.918 ± 0.49	3.907 ± 0.39	3.208 ± 0.32	2.768 ± 0.28	2.477 ± 0.25
303.15 K	6.16 ± 0.62	4.724 ± 0.47	3.801 ± 0.38	3.071 ± 0.31	2.519 ± 0.25	2.146 ± 0.21	1.882 ± 0.19
313.15 K	4.448 ± 0.45	3.625 ± 0.36	3.008 ± 0.3	2.458 ± 0.25	2.015 ± 0.2	1.705 ± 0.17	1.478 ± 0.15
323.15 K	3.389 ± 0.34	2.875 ± 0.29	2.431 ± 0.24	1.999 ± 0.2	1.64 ± 0.17	1.384 ± 0.14	1.194 ± 0.12

C[N+](C)(C)CC(=O)[O-] + O=C1O[C@H]([C@@H](O)CO)C(O)=C1O
Settings	viscosity [mPa·s]
298.15 K, 101.33 kPa, x2 = 0.5	721.2

C[N+](C)(C)CC(=O)[O-] + O=C(O)CC(O)(CC(=O)O)C(=O)O
101.3 kPa, x1 = 0.333
Settings	viscosity [mPa·s]
298 K	36920 ± 3600
323 K	2775 ± 980
